Laboratory results as given in US9844513B2, “Oral pharmaceutical composition” (Sigmoid Pharma Limited, priority 2007, dated 2017).
Read-outs that look alike come from different tables or passages of the source.

What was measured:
[1] = cited from earlier work
[2] = system: DSS-induced colitis mice; assay: DSS-induced colitis in mice (DSS 2.5% in drinking water); assay type: in vivo; settings: 8 mg DMOG every second day
Experimental: Colitis was induced in mice using DSS 2.5% in drinking water. DMOG mini-capsules of example 20 with two different coating were used, namely DSS-bead (0.25 mg—immediate release), and DSS-COAT-bead (DSS-COAT beads coated with 22% Surelease®—DMOG: 0.25 mg/day) and were compared to non-treated DSS-induced colitis mice and mice treated with 8 mg DMOG IP every second day. The minicapsules were prepared using the method described in Example 20 above.
As DMOG is known to increase the production of erythropoietin it is expected that in the presence of systemic DMOG that the packed cell volume would be increased. The packed cell volume (PCV) is a measurement of the proportion of blood that is made up of cells. The value is expressed as a percentage or fraction of cells in blood. The PCV rises when the number of red blood cells increases. […] Thus, it could be concluded that when administered within the intestinal or colonic lumen that it acts locally at low dose and negligible concentrations are systemically available.
Referring to FIG. 21, the disease activity index (DAI) is calculated as the sum of scores of weight loss, stool consistency and blood in feces. […] The minicapsules were prepared using the method described in Example 20 above.
A major symptom of DSS-induced colitis is weight loss. […] Likewise, when 0.25 mg DMOG is administered daily as colon-specific beads (DSS-COAT beads coated with 22% Surelease®—DMOG: 0.25 mg/day), the protective effect is pronounced. […] The minicapsules were prepared using the method described in Example 20 above.

[3] = system: antigen specific IgA and IgG; assay: Antigen specific IgA and IgG in intestinal washes by ELISA after immunisation of mice; assay type: in vivo; settings: intestinal washes one week after booster
Experimental: FIG. 9 represents the immune response in mice immunised with minicapsules as described in Example 5 and Example 6. […] Mice were immunised on 3 consecutive days on week 0 followed by an identical series of booster immunisations at week 2. Intestinal washes were collected one week following the booster and antigen specific IgA and IgG was assessed by ELISA.

Molecule: COc1ccccc1OCCNCC(O)COc1cccc2[nH]c3ccccc3c12 (centres unmarked) [Carvedilol]
- time to reach maximum plasma concentration ([1]; absorbed from the small intestine): within two hours
- relative absorption ([1]; colon): ~7%
- absolute bioavailability ([1]; extensive first-pass metabolism): approximately 25%
- relative absorption ([1]; ileum): ~28%
- half-life ([1]; in vivo): 7 to 10 h
- relative absorption ([1]; jejunum): approximately 56%

Molecule: COC(=O)CNC(=O)C(=O)OC [DMOG, dimethyloxalglycine]
- colon length (colon shortening) ([2]; Day 7, IP): significantly reduced colon shortening
- packed cell volume (PCV) ([2]; Day 7, IP): increases the PCV
- protective effect (weight loss) compared with non-treated DSS mice ([2]; IP): significant protective effect
- Disease Activity Index (DAI) ([2]; IP, 7 days): high DAI

B1: OVA in solution: Ovalbumin antigen given in solution, comparison group (protein, UniProt P01012 2-386, looked up)
Ovalbumin: GSIGAASMEFCFDVFKELKVHHANENIFYCPIAIMSALAMVYLGAKDSTRTQINKVVRFDKLPGFGDSIEAQCGTSVNVHSSLRDILNQITKPNDVYSFSLASRLYAEERYPILPEYLQCVKELYRGGLEPINFQTAADQARELINSWVESQTNGIIRNVLQPSSVDSQTAMVLVNAIVFKGLWEKAFKDEDTQAMPFRVTEQESKPVQMMYQIGLFRVASMASEKMKILELPFASGTMSMLVLLPDEVSGLEQLESIINFEKLTEWTSSNVMEERKIKVYLPRMKMEEKYNLTSVLMAMGITDVFSSSANLSGISSAESLKISQAVHAAHAEINEAGREVVGSAEAGVDAASVSEEFRADHPFLFCIKHIATNAVLFFGRCVSP
- titres of antigen specific IgG in the intestinal washes [3]: highest responses
